Data as given in ChEMBL document CHEMBL4765227, “Hit to lead optimization of a series of N-[4-(1,3-benzothiazol-2-yl)phenyl]acetamides as monoacylglycerol lipase inhibitors with potential anticancer activity” (Eur J Med Chem, 2016).
Values belong to the compound of their own block, whether it stands above or below them.

Legend:
Monoglyceride lipase [1] = biological target: T1, Monoglyceride lipase (Homo sapiens, UniProt Q99685); experiment: Inhibition of human MAGL
T1 sequence (Q99685 whole entry): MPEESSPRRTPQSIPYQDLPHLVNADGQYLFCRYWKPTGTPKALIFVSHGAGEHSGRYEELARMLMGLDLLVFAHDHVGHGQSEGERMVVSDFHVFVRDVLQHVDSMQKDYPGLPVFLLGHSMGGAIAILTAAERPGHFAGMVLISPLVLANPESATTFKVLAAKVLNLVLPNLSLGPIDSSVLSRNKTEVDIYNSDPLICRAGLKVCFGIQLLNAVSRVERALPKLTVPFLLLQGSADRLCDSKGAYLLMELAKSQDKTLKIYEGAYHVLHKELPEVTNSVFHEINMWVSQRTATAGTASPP

Monoglyceride lipase [2] = biological target: T1, Monoglyceride lipase; experiment: Inhibition of human MAGL transfected in human HEK293T cells assessed as reduction in ABPP binding by competitive binding assay; format: cell-based
Monoglyceride lipase [3] = biological target: T1, Monoglyceride lipase; experiment: Inhibition of MAGL (unknown origin)
Monoglyceride lipase [4] = biological target: T1, Monoglyceride lipase; experiment: Inhibition of human MAGL using 4-Nitrophenylacetate as substrate

- IC50 (Monoglyceride lipase [1]): < 0.4 nM
SMILES: O=C(N1CCC(C(c2ccc3c(c2)OCO3)c2ccc3c(c2)OCO3)CC1)n1cncn1

- IC50 (Monoglyceride lipase [2]): 5.9 nM
SMILES: O=C(OC(C(F)(F)F)C(F)(F)F)N1CCC(C(O)(c2ccc3c(c2)OCO3)c2ccc3c(c2)OCO3)CC1

- IC50 (Monoglyceride lipase [3]): 31000 nM
SMILES: CCCCNC(=O)Oc1ccc(C2=NCCS2)cc1

- IC50 (Monoglyceride lipase [4]): > 100000 nM
SMILES: O=C(CNc1ccc([N+](=O)[O-])cc1)Nc1ccc(-c2nc3ccccc3s2)cc1

- IC50 (Monoglyceride lipase [3]): 0.9 nM
SMILES: CN(C)C(=O)n1nnc(Cc2ccc(-c3ccccc3)cc2)n1

SMILES: COc1nn(-c2ccc(NC(=O)OCc3ccccc3)c(C)c2)c(=O)o1
- IC50 (Monoglyceride lipase [4]): 424 nM

- IC50 (Monoglyceride lipase [3]): 28000 nM
SMILES: O=C(Nc1cccc(-c2ccccc2)c1)OC1CCCCC1
